Measured values reported in patent US9724537B2, “Abnormal electrical conduction blocking apparatus using photodynamic therapy (PDT)” (Keio University, priority 2006, dated 2017).
Values joined by “and” are separate entries in the source; they are usually repeats but may differ in a detail not shown here. Equal entries are not always repeated.

Key:
[1] = tested on: rat cardiac muscle cells in primary culture; test: Pulsation and cell conditions of cardiac muscle cells in primary culture after PDT; type: cell-based
Method: Cardiac muscle cells in primary culture were purchased in suspension and seeded on a 96-well microplate. Cells were cultured at 37° C. under 5% CO2, and cells on days 3 and 7 of culture were used. The cardiac muscle cells in primary culture were pulsatile, and pulsations among cells were synchronizing.
Cardiac muscle cells in primary culture were adjusted to a density of 2.0×10^4 cells/well. As a photosensitizer talaporfin sodium was dissolved in a medium at various concentrations and added at a concentration of 0.1 ml/well. After 1 to 2 h of loading, laser irradiation was performed, and the medium was replaced after the completion of irradiation.
At this time, a 0.5-cm^2 irradiation field (=area of well) was irradiated with a continuous semiconductor laser beam (peak wavelength, 670.8 nm) under various conditions. […]
Laser intensity: 150 mW/cm^2
Total energy density: 1, 2, 3, 5 J/cm^2
In Table 1, 1d, 2d, and 3d refer to one, two, and three days after PDT, respectively. μg refers to the photosensitizer concentration in μg/ml. Numerical values in Table 1 are (number of samples in which pulsation restarted)/(total number of samples).

[2] = tested on: cultured cardiac muscle cells derived from an SD rat; test: Changes in intracellular Ca^2+ concentration during PDT (Fluo-4AM); type: cell-based
Method: Intracellular Ca^2+ concentration changes in cells on day 1 after seeding were measured with the four protocols described later. Cultured cardiac muscle cells derived from an SD rat were used. As a medium for cell culture, D-MEM/F12+10% FBS was used. Before subjected to the experiment, cardiac muscle cells in suspension at 1.6×10^5 cells/ml were seeded on a 24-well plate with a glass bottom at 0.5 ml/well (8.0×10^4 cells/well) and cultured in an incubator (37° C., 5% CO2) for one day.
Further, MEM+10% FBS containing 2.2 mM Ca^2+ was used as a normal medium, and SMEM+10% FBS containing 364 μM Ca^2+ was used as a Ca^2+-free medium.
Intracellular Ca^2+ concentrations were measured using Fluo-4AM (Molecular Probe). 55 μl of DMSO (Dojindo Laboratories, pure solvent for fluorescence analysis) was added to 50 μg of Fluo-4AM, 10 μl of this mixture was added to 1 ml of a medium for measurement (normal medium or Ca^2+-free medium) at 8 μM, and cardiac muscle cells were brought into loading for 30 min. Fluo4 was excited with Ar laser (wavelength, 488 nm), and a fluorescence image at 510 to 560 nm was obtained with a CCD camera (Nippon Roper Co., Ltd., Retiga 2000R). 10 photos were taken with an exposure time of 10 s, and then PDT was performed by irradiation with a semiconductor laser beam (peak wavelength, 670.8 nm; power, 150 mW/cm^2; continuous light; total energy density, 5 or 10 J/cm^2), and a total of 40 photos (for approx. 408 s) were continuously taken during and after PDT. The image analysis was performed using Image J, an image analysis software, and changes in intracellular cumulative fluorescence on each slide were calculated. Assuming the initial cumulative fluorescence F0 as 1, fluorescence changes were calculated by F/F0. Further, cells were incubated at temperature of 37° C. using a hot plate (Tokai Hit) during observation.
Protocol 1 (Extracellular Distribution of Talaporfin Sodium, Extracellular Normal Ca^2+ Concentration)
Fluo-4AM (normal medium solution) is loaded with each well at room temperature for 30 min, then talaporfin sodium (normal medium) adjusted beforehand to various concentrations is added at 0.5 ml/well, and observation is performed immediately after addition.
Protocol 2 (Intracellular Distribution of Talaporfin Sodium, Extracellular Normal Ca^2+ Concentration)
Fluo-4AM (normal medium solution) is loaded with each well at room temperature for 30 min, then talaporfin sodium (normal medium) adjusted beforehand to various concentrations is added at 0.5 ml/well, and observation is performed after the medium is replaced with a normal medium after 30 min of loading.
Protocol 3 (Extracellular Distribution of Talaporfin Sodium, No Extracellular Ca^2+) […]

[3] = Pharmacokinetics of talaporfin sodium, rat plasma; type: in vivo; conditions: intravenous
Method: FIG. 45 is a graph showing changes in plasma concentrations after intravenous injection to rats at various doses (10, 5, 2, 1 mg/kg) and to humans at 1 mg/kg over time, using data in pharmacology studies and clinical studies with talaporfin sodium. In rats, the average of the mean plasma concentrations measured at 47 min, which was the average of the half-lives from 2 to 60 min after intravenous injection at a dose of 10 mg/kg, and at 5 min was used as true values, and concentration changes were calculated until 60 min. Furthermore, a straight line was drawn between the value at 60 min and the value at 120 min calculated using the average of the plasma concentrations measured at 9.6 h, which was the average of the half-lives from 2 to 24 h after intravenous injection, and at 24 h as a true value. Changes at each dose were calculated assuming that the plasma concentration changed in proportion to the dose.

C=Cc1c(C)c2cc3nc(c(CC(=O)N[C@@H](CC(=O)O)C(=O)O)c4[nH]c(cc5nc(cc1[nH]2)C(C)=C5CC)c(C)c4C(=O)O)[C@@H](CCC(=O)O)[C@@H]3C [talaporfin sodium, mono-L-aspartyl chlorine 6]
Restart of pulsation in cardiac muscle cells: (number of samples in which pulsation restarted)/(total number of samples) ([1]; 5 μg (μg/ml), 1J, 1 d after PDT): 4/8
Restart of pulsation in cardiac muscle cells: (number of samples in which pulsation restarted)/(total number of samples) ([1]; 5 μg (μg/ml), 1J, 2 d after PDT): 8/8
Restart of pulsation in cardiac muscle cells: (number of samples in which pulsation restarted)/(total number of samples) ([1]; 5 μg (μg/ml), 1J, 3 d after PDT): 8/8
Restart of pulsation in cardiac muscle cells: (number of samples in which pulsation restarted)/(total number of samples) ([1]; 5 μg (μg/ml), 2J, 1 d after PDT): 1/8
Restart of pulsation in cardiac muscle cells: (number of samples in which pulsation restarted)/(total number of samples) ([1]; 5 μg (μg/ml), 2J, 2 d after PDT): 8/8
Restart of pulsation in cardiac muscle cells: (number of samples in which pulsation restarted)/(total number of samples) ([1]; 5 μg (μg/ml), 2J, 3 d after PDT): 8/8
Restart of pulsation in cardiac muscle cells: (number of samples in which pulsation restarted)/(total number of samples) ([1]; 5 μg (μg/ml), 3J, 1 d after PDT): 0/8
Restart of pulsation in cardiac muscle cells: (number of samples in which pulsation restarted)/(total number of samples) ([1]; 5 μg (μg/ml), 3J, 2 d after PDT): 7/8
Restart of pulsation in cardiac muscle cells: (number of samples in which pulsation restarted)/(total number of samples) ([1]; 5 μg (μg/ml), 3J, 3 d after PDT): 8/8
Restart of pulsation in cardiac muscle cells: (number of samples in which pulsation restarted)/(total number of samples) ([1]; 5 μg (μg/ml), 5J, 1 d after PDT): 0/8
Restart of pulsation in cardiac muscle cells: (number of samples in which pulsation restarted)/(total number of samples) ([1]; 5 μg (μg/ml), 5J, 2 d after PDT): 8/8
Restart of pulsation in cardiac muscle cells: (number of samples in which pulsation restarted)/(total number of samples) ([1]; 5 μg (μg/ml), 5J, 3 d after PDT): 8/8
Restart of pulsation in cardiac muscle cells: (number of samples in which pulsation restarted)/(total number of samples) ([1]; 10 μg (μg/ml), 1J, 1 d after PDT): 0/8
Restart of pulsation in cardiac muscle cells: (number of samples in which pulsation restarted)/(total number of samples) ([1]; 10 μg (μg/ml), 1J, 2 d after PDT): 8/8
Restart of pulsation in cardiac muscle cells: (number of samples in which pulsation restarted)/(total number of samples) ([1]; 10 μg (μg/ml), 1J, 3 d after PDT): 8/8
Restart of pulsation in cardiac muscle cells: (number of samples in which pulsation restarted)/(total number of samples) ([1]; 10 μg (μg/ml), 2J, 1 d after PDT): 0/8
Restart of pulsation in cardiac muscle cells: (number of samples in which pulsation restarted)/(total number of samples) ([1]; 10 μg (μg/ml), 2J, 2 d after PDT): 7/8
Restart of pulsation in cardiac muscle cells: (number of samples in which pulsation restarted)/(total number of samples) ([1]; 10 μg (μg/ml), 2J, 3 d after PDT): 8/8
Restart of pulsation in cardiac muscle cells: (number of samples in which pulsation restarted)/(total number of samples) ([1]; 10 μg (μg/ml), 3J, 1 d after PDT): 0/8
Restart of pulsation in cardiac muscle cells: (number of samples in which pulsation restarted)/(total number of samples) ([1]; 10 μg (μg/ml), 3J, 2 d after PDT): 8/8
Restart of pulsation in cardiac muscle cells: (number of samples in which pulsation restarted)/(total number of samples) ([1]; 10 μg (μg/ml), 3J, 3 d after PDT): 8/8
Restart of pulsation in cardiac muscle cells: (number of samples in which pulsation restarted)/(total number of samples) ([1]; 10 μg (μg/ml), 5J, 1 d after PDT): 1/8
Restart of pulsation in cardiac muscle cells: (number of samples in which pulsation restarted)/(total number of samples) ([1]; 10 μg (μg/ml), 5J, 2 d after PDT): 8/8
Restart of pulsation in cardiac muscle cells: (number of samples in which pulsation restarted)/(total number of samples) ([1]; 10 μg (μg/ml), 5J, 3 d after PDT): 8/8
pulsation immediately after PDT ([1]; 10 μg/ml, 3 J/cm^2): the pulsation stopped immediately after PDT
cell conditions at one day after PDT ([1]; 10 μg/ml, 3 J/cm^2, FIG. 12): no damage was observed in the cell conditions
restart of pulsation and synchronization ([1]; 10 μg/ml, 3 J/cm^2, see Table 1): the pulsation restarted, and synchronization was observed at about one to three days after experiment
Restart of pulsation in cardiac muscle cells: (number of samples in which pulsation restarted)/(total number of samples) ([1]; 15 μg (μg/ml), 1J, 1 d after PDT): 0/8
Restart of pulsation in cardiac muscle cells: (number of samples in which pulsation restarted)/(total number of samples) ([1]; 15 μg (μg/ml), 1J, 2 d after PDT): 8/8
Restart of pulsation in cardiac muscle cells: (number of samples in which pulsation restarted)/(total number of samples) ([1]; 15 μg (μg/ml), 1J, 3 d after PDT): 8/8
Restart of pulsation in cardiac muscle cells: (number of samples in which pulsation restarted)/(total number of samples) ([1]; 15 μg (μg/ml), 2J, 1 d after PDT): 0/8
Restart of pulsation in cardiac muscle cells: (number of samples in which pulsation restarted)/(total number of samples) ([1]; 15 μg (μg/ml), 2J, 2 d after PDT): 8/8
Restart of pulsation in cardiac muscle cells: (number of samples in which pulsation restarted)/(total number of samples) ([1]; 15 μg (μg/ml), 2J, 3 d after PDT): 8/8
Restart of pulsation in cardiac muscle cells: (number of samples in which pulsation restarted)/(total number of samples) ([1]; 15 μg (μg/ml), 3J, 1 d after PDT): 1/8
Restart of pulsation in cardiac muscle cells: (number of samples in which pulsation restarted)/(total number of samples) ([1]; 15 μg (μg/ml), 3J, 2 d after PDT): 8/8
Restart of pulsation in cardiac muscle cells: (number of samples in which pulsation restarted)/(total number of samples) ([1]; 15 μg (μg/ml), 3J, 3 d after PDT): 8/8
Restart of pulsation in cardiac muscle cells: (number of samples in which pulsation restarted)/(total number of samples) ([1]; 15 μg (μg/ml), 5J, 1 d after PDT): 0/8
Restart of pulsation in cardiac muscle cells: (number of samples in which pulsation restarted)/(total number of samples) ([1]; 15 μg (μg/ml), 5J, 2 d after PDT): 8/8
Restart of pulsation in cardiac muscle cells: (number of samples in which pulsation restarted)/(total number of samples) ([1]; 15 μg (μg/ml), 5J, 3 d after PDT): 8/8
restart of pulsation ([1]; 20 μg/ml, 3 J/cm^2): The pulsation did not restart permanently
cell conditions at one day after PDT ([1]; 20 μg/ml, 3 J/cm^2, FIG. 13): Associated cells were separated, and individual cells themselves shrank
cell morphology during and after PDT ([2]; FIG. 23): 1) swelling of the cell itself and 2) growth of “bobble” were observed and Cell morphology did not virtually change after PDT
change in intracellular Ca^2+ concentration during PDT ([2]; no extracellular Ca^2+, 30 μg/ml, 10 J/cm2): the intracellular Ca^2+ concentrations hardly changed
change in intracellular Ca^2+ concentration during PDT ([2]; normal extracellular Ca^2+ concentration): Rapid increases in the intracellular Ca^2+ concentrations were observed immediately after performing PDT
change in intracellular Ca^2+ concentration, photosensitizer outside vs inside the cell ([2]; normal extracellular Ca^2+, 0 min loading vs 30 min loading): rapid changes in the Ca^2+ concentration were confirmed when the photosensitizer exists only outside the cell
concentration at 30 min ([3]; conditions of Experiment 3 (2 mg/kg, interval 30 min)): 24000 ng/mL
concentration at 60 min ([3]; conditions of Experiment 4 (2 mg/kg, interval 60 min)): 16000 ng/mL
